Where two headings read alike, the source gives them in different places.

We go through 4 compounds from patent US10906878B2, “Kinase inhibitors for the treatment of disease” (Dana-Farber Cancer Institute, Inc., priority 2013, dated 2021).

Common to all, as to type: cell-based
One test addresses EGFR L858R Ba/F3 cells (Homo sapiens (Human), UniProt P00533, L858R). Kind of test: Ba/F3 cell growth inhibition (MTS assay), EGFR L858R. An excerpt: (§1) The specific cDNAs encoding the oncogenic alterations (EGFR: Del 19, L858R, L718Q, L844V, Del/T790M, L858R/T790M, Del 19/L718Q, Del 19/L844V, Del 19/T790M/L718Q and L858R/T790M/L718Q; FGFR: TEL-FGFR1, TEL-FGFR2, TEL-FGFR1 V561M, TEL-FGFR2 V561M; ALK: EML4-ALK; ROS1: CD74-ROS1) were cloned into the pDNA-Dual (BD Biosciences) vector using standard molecular biology techniques. Mutations were introduced using site-directed mutagenesis (Agilent) with mutant specific primers according to the manufacturer's instructions. All constructs were confirmed by DNA sequencing. The constructs were introduced into Ba/F3 cells using retroviral infection. Polyclonal cell lines were established by puromycin selection and subsequently cultured in the absence of interleukin-3 (IL-3). Uninfected Ba/F3 cells or cell lines expressing green fluorescent protein (GFP) were used as controls.
(§2) Growth and inhibition of growth was assessed by MTS assay. This assay, a colorimetric method for determining the number of viable cells, is based on the bioreduction of 3-(4,5-dimethylthiazol-2-yl)-5-(3-carboxymethoxyphenyl)-2-(4-sulfophenyl)-2H-tetrazolium (MTS) by cells to a formazan product that is soluble in cell culture medium, can be detected spectrophotometrically and was performed according to the manufacturer's recommended conditions. Ba/F3 cells were exposed to treatment for 72 hours and the number of cells used per experiment determined empirically to assure linear growth kinetics over that time period. All experimental points were set up in six to twelve wells and all experiments were repeated at least three times. […] The curves were fitted using a non-linear regression model with a sigmoidal dose response.

For another test, the system named is KIF5B/Ret_V804M. Kind of test: Ba/F3 cell growth inhibition (MTS assay), KIF5B/Ret_V804M. The protocol: as §2
On the technique in general: Tetrazolium dyes change colour on reduction, which living cells bring about.

Another test deals with EGFR Del Ba/F3 cells (Homo sapiens, UniProt P00533, cells depend on it, form not given). Kind of test: Ba/F3 cell growth inhibition (MTS assay), EGFR Del.
Excerpt: as §1, §2

Test [1] deals with EGFR Del/T790M/L718Q Ba/F3 cells (Homo sapiens, UniProt P00533, L718Q/T790M, cells depend on it, form not given). The note with it: 1.0 μM drug.
Excerpt: as §1, §2

The target of test [2] is EGFR Del/T790M Ba/F3 cells (Homo sapiens, UniProt P00533, T790M, cells depend on it, form not given). Kind of test: Ba/F3 cell growth inhibition (MTS assay), EGFR Del/T790M.
Excerpt: as §1, §2

Consider `C=CC(=O)Nc1cccc(N(C(=O)Nc2ccccc2Cl)c2cc(Nc3ccc(N4CCN(C)CC4)cc3OC)ncn2)c1` [Compound 11A], for which the “EGFR activity (% Control, 1.0 μM drug) Assay 1 L858R” value on EGFR L858R Ba/F3 cells (1.0 μM drug, Assay 1) came to 2 % Control. Further, the “EGFR activity (% Control, 1.0 μM drug) Assay 2 L858R” value on EGFR L858R Ba/F3 cells (1.0 μM drug) stood at 3 % Control. Besides, in the test on KIF5B/Ret_V804M, the “EGFR activity (% Control, 1.0 μM drug) Assay 1 KIF5B/Ret_V804M” value turned out to be 103 % Control. Also, on EGFR Del Ba/F3 cells (1.0 μM drug, Assay 1), the “EGFR activity (% Control, 1.0 μM drug) Assay 1 Del” value was determined as 3 % Control. Also, the “EGFR activity (% Control, 1.0 μM drug) Assay 2 Del” value at EGFR Del Ba/F3 cells (1.0 μM drug) was found to be 4 % Control. Also, in test [1], the “EGFR activity (% Control, 1.0 μM drug) Assay 1 Del/T790M/L718Q” value is given as 84 % Control and the “EGFR activity (% Control, 1.0 μM drug) Assay 2 Del/T790M/L718Q” value was found to be 82 % Control. Also, the “EGFR activity (% Control, 1.0 μM drug) Assay 1 Del/T790M” value in test [2] (1.0 μM drug, Assay 1) is 1 % Control. For the same compound, the “EGFR activity (% Control, 1.0 μM drug) Assay 2 Del/T790M” value in test [2] (1.0 μM drug) was 5 % Control.
As to `C=CC(=O)Nc1ccc(OC)c(Nc2cc(N(C(=O)Nc3c(C)cccc3C)c3ccc(N4CCN(CC)CC4)cc3)ncn2)c1` [Compound 9A], the “EGFR activity (% Control, 1.0 μM drug) Assay 1 L858R” value on EGFR L858R Ba/F3 cells (1.0 μM drug, Assay 1) is reported as 2 % Control. The “EGFR activity (% Control, 1.0 μM drug) Assay 2 L858R” value at EGFR L858R Ba/F3 cells (1.0 μM drug) was found to be 2 % Control. Besides, the “EGFR activity (% Control, 1.0 μM drug) Assay 1 KIF5B/Ret_V804M” value with KIF5B/Ret_V804M amounted to 93 % Control. At EGFR Del Ba/F3 cells (1.0 μM drug, Assay 1), the “EGFR activity (% Control, 1.0 μM drug) Assay 1 Del” value turned out to be 3 % Control. The “EGFR activity (% Control, 1.0 μM drug) Assay 2 Del” value on EGFR Del Ba/F3 cells (1.0 μM drug) was found to be 4 % Control. For the same compound, in test [1], the “EGFR activity (% Control, 1.0 μM drug) Assay 1 Del/T790M/L718Q” value amounted to 90 % Control and the “EGFR activity (% Control, 1.0 μM drug) Assay 2 Del/T790M/L718Q” value was found to be 86 % Control. Also, in test [2] (1.0 μM drug, Assay 1), the “EGFR activity (% Control, 1.0 μM drug) Assay 1 Del/T790M” value is 2 % Control. In addition, the “EGFR activity (% Control, 1.0 μM drug) Assay 2 Del/T790M” value in test [2] (1.0 μM drug) was 39 % Control.
On to `Cc1ccc(C(=O)Nc2ccc(CN3CCN(C)CC3)c(C(F)(F)F)c2)cc1C#Cc1cnc2cccnn12` [Ponatinib], for which the “EGFR activity (% Control, 1.0 μM drug) Assay 1 L858R” value at EGFR L858R Ba/F3 cells is given as 98 % Control. For the same compound, in the test with KIF5B/Ret_V804M (Assay 1), the “KIF5B/Ret_V804M Ba/F3 cell growth (% control, 1.0 μM drug)” value was 2 % Control. Also, the “EGFR activity (% Control, 1.0 μM drug) Assay 1 Del” value on EGFR Del Ba/F3 cells was 17 % Control. Besides, in test [1], the “EGFR activity (% Control, 1.0 μM drug) Assay 1 Del/T790M/L718Q” value came out at 48 % Control. Also, the “EGFR activity (% Control, 1.0 μM drug) Assay 1 Del/T790M” value in test [2] is on record as 79 % Control.
`C=CC(=O)Nc1ccc(OC)c(N(C(=O)Nc2c(C)cccc2C)c2cc(Nc3ccc(N4CCN(CC)CC4)cc3)ncn2)c1` [Compound 8A]: on EGFR L858R Ba/F3 cells (1.0 μM drug, Assay 1), the “EGFR activity (% Control, 1.0 μM drug) Assay 1 L858R” value is 2 % Control. The “EGFR activity (% Control, 1.0 μM drug) Assay 2 L858R” value on EGFR L858R Ba/F3 cells (1.0 μM drug) is reported as 10 % Control. Also, the “EGFR activity (% Control, 1.0 μM drug) Assay 1 KIF5B/Ret_V804M” value in the test on KIF5B/Ret_V804M was found to be 108 % Control. Also, at EGFR Del Ba/F3 cells (1.0 μM drug, Assay 1), the “EGFR activity (% Control, 1.0 μM drug) Assay 1 Del” value is recorded as 3 % Control. Besides, on EGFR Del Ba/F3 cells (1.0 μM drug), the “EGFR activity (% Control, 1.0 μM drug) Assay 2 Del” value was 72 % Control. In addition, in test [1], the “EGFR activity (% Control, 1.0 μM drug) Assay 1 Del/T790M/L718Q” value worked out at 113 % Control and the “EGFR activity (% Control, 1.0 μM drug) Assay 2 Del/T790M/L718Q” value worked out at 93 % Control. Further, the “EGFR activity (% Control, 1.0 μM drug) Assay 1 Del/T790M” value in test [2] (1.0 μM drug, Assay 1) came to 1 % Control. In test [2] (1.0 μM drug), the “EGFR activity (% Control, 1.0 μM drug) Assay 2 Del/T790M” value is 100 % Control.
